From US8188050B2, “Pharmaceutical and/or cosmetic composition containing peptides” (ISP Investments Inc., priority 2006, dated 2012)
Entries after “also recorded” stand apart in the source; their conditions may differ.

System: Biopsies of human skin
Test: Ex vivo study of the effect of the peptide on the synthesis of melanin (Fontana-Masson staining of skin biopsies)
Type: cell-based
Conditions: two applications daily, peptide 1% starting with a 50-ppm solution, 48 hours
Method: The aim of this ex vivo study is to highlight the increase in melanization produced by the peptides according to the invention.
Protocol: Biopsies of human skin 6 mm in diameter are held in an ex vivo culture in the presence of a specific medium (1 g/L DMEM, Ham's F-12, SVF, and antibiotics) on inserts deposited on 6-well plates. […] The duration of the treatment is 48 hours. The biopsies are subsequently fixed in 9% formaldehyde and NaCl (150 mM) for 10 hours and then enclosed in paraffin. Thin-sections of the skin 3 μm thick are then made, and the melanin is specifically stained by the Fontana-Masson technique.

Q: “Thr-Leu-Leu-Ala (TLLA) [SEQ ID No. 3, peptide fragment of the protein SLC24A5]” was tested. Which “Location/distribution of melanin in the epidermis” value did it give?
A: located in the basal layer but is also transported into the supra-basal layers; also recorded: stimulates the entire process of melanin distribution in the epidermis

Q: And the “Synthesis of melanin by the melanocytes (conclusion)” value?
A: strong increase in the synthesis of melanin

Q: And the “Intensity of melanin coloration of skin thin-sections (Fontana-Masson staining)” value (vs. untreated sections)?
A: coloration of clearly increased intensity
